These results are taken from PubChem BioAssay (NCI).

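Tested at 5 concentrations; 48 h exposure; 96-well plates; endpoints linearly interpolated, else capped at highest concentration. TGI is the concentration that stops growth completely.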 Some results are limits rather than exact numbers.

Among the test systems are ACHN renal; CCRF-CEM leukemia; DU-145 prostate; HCT-15 colon; HOP-62 NSCLC; LOX IMVI melanoma; MALME-3M melanoma; MDA-MB-231 breast; MDA-MB-435; NCI-H23 lung; NCI-H522 lung; OVCAR-4 ovarian; PC-3 prostate; RXF 393 renal; SF-295 CNS; SN12C renal; SW-620 colon; T-47D breast; TK-10 renal; UACC-62 melanoma.
Test in all cases: NCI anticancer screen, dose series, 48 h

Regarding `CC[C@H]1C=CCC[C@@]2(C[C@@H]3CC[C@@H]4[C@H](C(=O)OCCCCCCCCCCCCCCCC(=O)N(CCCNC(C)=O)C[C@H](CCNC(C)=O)OC(C)=O)[C@]5(CCC[C@@H](C)O5)NC(=[N+]34)N2)O1`, the TGI in the experiment on ACHN renal stood at 1.37 µM; with CCRF-CEM leukemia, 0.0469 µM; in the experiment on DU-145 prostate, 1.59 µM; with HCT-15 colon, 2.78 µM; in the experiment with HOP-62 NSCLC, 1.84 µM; in the experiment on LOX IMVI melanoma, 0.0709 µM. Also, the TGI with MALME-3M melanoma stood at 0.568 µM; in the experiment on MDA-MB-231 breast it was 1.93 µM; in the experiment with MDA-MB-435, 0.545 µM; in the experiment on NCI-H23 lung it was 2.93 µM; in the experiment on NCI-H522 lung, 0.287 µM; in the experiment on OVCAR-4 ovarian, 1.84 µM. Also, the TGI with PC-3 prostate was 1.18 µM; with RXF 393 renal it was 1.02 µM; in the experiment with SF-295 CNS, 1.46 µM; in the experiment with SN12C renal, 2.1 µM; with SW-620 colon it was 2.14 µM; in the experiment with T-47D breast, 2.77 µM. Moreover, the figures for the TGI with TK-10 renal and with UACC-62 melanoma were 2.07 µM and 0.246 µM, respectively.

`CCOP(C)(=O)/C(Cc1ccc(OC)c(OC)c1)=N\O` (stereo not given): the TGI in the experiment with ACHN renal, with CCRF-CEM leukemia, in the experiment on DU-145 prostate, in the experiment on HCT-15 colon, in the experiment with HOP-62 NSCLC and in the experiment with LOX IMVI melanoma was over 100 µM in each case. The TGI in the experiment with MALME-3M melanoma, in the experiment with MDA-MB-231 breast, in the experiment with MDA-MB-435, in the experiment on NCI-H23 lung, with NCI-H522 lung and in the experiment on OVCAR-4 ovarian was over 100 µM throughout. In addition, the TGI with PC-3 prostate, in the experiment on RXF 393 renal, in the experiment with SF-295 CNS, in the experiment with SN12C renal, in the experiment on SW-620 colon and with T-47D breast was over 100 µM throughout. Besides, the TGI in the experiment on TK-10 renal and with UACC-62 melanoma was over 100 µM each time.

Take `CC(=O)C1=C(C)N(c2ccccc2)C2(O)C=CC(=O)C3=C(O)c4ccccc4C(=O)C312` (stereo not given): the TGI is 31.2 µM in the experiment with ACHN renal; over 100 µM in the experiment with CCRF-CEM leukemia; 28.5 µM in the experiment on DU-145 prostate; over 100 µM with HCT-15 colon; 72.1 µM in the experiment on HOP-62 NSCLC; 83 µM in the experiment on LOX IMVI melanoma. The TGI with MALME-3M melanoma was found to be 2.64 µM; in the experiment on MDA-MB-231 breast, 51 µM; in the experiment on MDA-MB-435, 5.19 µM; in the experiment with NCI-H23 lung, 46.3 µM; in the experiment on NCI-H522 lung it was 36.4 µM; in the experiment with OVCAR-4 ovarian, 72.1 µM. Further, the TGI in the experiment with PC-3 prostate is 41.5 µM; in the experiment with RXF 393 renal, 36.6 µM; in the experiment with SF-295 CNS, 38.5 µM; with SN12C renal it was 30.3 µM; in the experiment on SW-620 colon it was over 100 µM; in the experiment on T-47D breast it was 76.8 µM. For the same molecule, the TGI with TK-10 renal was found to be 46.2 µM; in the experiment on UACC-62 melanoma, 34.1 µM.

In the case of `COc1ccccc1/C=C/c1nc2ccccc2o1`, the TGI in the experiment with ACHN renal, in the experiment with CCRF-CEM leukemia, with DU-145 prostate, in the experiment with HCT-15 colon, with HOP-62 NSCLC and in the experiment on LOX IMVI melanoma was over 10 µM in each case. For the same molecule, the TGI in the experiment with MALME-3M melanoma, with MDA-MB-231 breast, in the experiment on MDA-MB-435, in the experiment on NCI-H23 lung, in the experiment with NCI-H522 lung and with OVCAR-4 ovarian was over 10 µM in each case. For the same molecule, the TGI with PC-3 prostate, with RXF 393 renal, in the experiment with SF-295 CNS, in the experiment on SN12C renal, in the experiment with SW-620 colon and in the experiment with T-47D breast was over 10 µM in each case. Besides, the TGI with TK-10 renal and in the experiment with UACC-62 melanoma was over 10 µM each time.

Take `CCOC(=O)N1N(c2ccccc2)C(=O)C1(c1ccccc1)c1ccccc1`: the TGI with ACHN renal is over 100 µM; in the experiment on CCRF-CEM leukemia, over 100 µM; in the experiment on DU-145 prostate, over 100 µM; with HCT-15 colon, over 100 µM; in the experiment on HOP-62 NSCLC it was 46 µM; in the experiment on LOX IMVI melanoma it was over 100 µM. In addition, the TGI with MALME-3M melanoma, in the experiment on MDA-MB-231 breast, with MDA-MB-435, in the experiment on NCI-H23 lung, in the experiment with NCI-H522 lung and with OVCAR-4 ovarian was over 100 µM in each case. The TGI with PC-3 prostate, in the experiment with RXF 393 renal, in the experiment with SF-295 CNS, in the experiment with SN12C renal, with SW-620 colon and in the experiment with T-47D breast was over 100 µM each time. Further, the TGI in the experiment with TK-10 renal and with UACC-62 melanoma was over 100 µM each time.

`COc1cc(Nc2nc3ccccc3nc2C(C)C)cc(OC)c1OC`: the TGI in the experiment with ACHN renal, in the experiment with CCRF-CEM leukemia, in the experiment on DU-145 prostate, in the experiment with HCT-15 colon, in the experiment on HOP-62 NSCLC and in the experiment on LOX IMVI melanoma was over 100 µM in each case. The TGI in the experiment on MALME-3M melanoma, in the experiment with MDA-MB-231 breast, in the experiment on MDA-MB-435, in the experiment with NCI-H23 lung, in the experiment with NCI-H522 lung and with OVCAR-4 ovarian was over 100 µM throughout. Besides, the TGI in the experiment with PC-3 prostate, in the experiment on RXF 393 renal, in the experiment with SF-295 CNS, in the experiment on SN12C renal, in the experiment with SW-620 colon and in the experiment on T-47D breast was over 100 µM in each case. Also, the TGI in the experiment on TK-10 renal and with UACC-62 melanoma was over 100 µM throughout.

For the molecule `COCn1c(C)c(C)c2c(=O)oc(C)nc21`, the TGI with ACHN renal, in the experiment with CCRF-CEM leukemia, in the experiment with DU-145 prostate, in the experiment on HCT-15 colon, in the experiment on HOP-62 NSCLC and in the experiment on LOX IMVI melanoma was over 100 µM throughout. For the same molecule, the TGI with MALME-3M melanoma, with MDA-MB-231 breast, with MDA-MB-435, in the experiment with NCI-H23 lung, in the experiment on NCI-H522 lung and with OVCAR-4 ovarian was over 100 µM each time. The TGI with PC-3 prostate, with RXF 393 renal, in the experiment on SF-295 CNS, in the experiment on SN12C renal, with SW-620 colon and in the experiment with T-47D breast was over 100 µM each time. Further, the TGI with TK-10 renal and in the experiment on UACC-62 melanoma was over 100 µM each time.
